For two compounds, IC50 results are on record in paper PMC10087387, “Molecular docking, molecular dynamics simulations and in vitro screening reveal cefixime and ceftriaxone as GSK3β covalent inhibitors” (RSC Advances, 2023).

Each structure is given as a SMILES string. Where two headings read alike, the source gives them in different places.

As a reminder, the IC50 is the concentration that inhibits the measured activity by half. Low readings indicate higher potency, high ones lower potency.

In test [1] the target is T1, GSK3β (Homo sapiens, UniProt P49841).
T1 construct: gene GSK3B
T1 sequence (P49841 whole entry): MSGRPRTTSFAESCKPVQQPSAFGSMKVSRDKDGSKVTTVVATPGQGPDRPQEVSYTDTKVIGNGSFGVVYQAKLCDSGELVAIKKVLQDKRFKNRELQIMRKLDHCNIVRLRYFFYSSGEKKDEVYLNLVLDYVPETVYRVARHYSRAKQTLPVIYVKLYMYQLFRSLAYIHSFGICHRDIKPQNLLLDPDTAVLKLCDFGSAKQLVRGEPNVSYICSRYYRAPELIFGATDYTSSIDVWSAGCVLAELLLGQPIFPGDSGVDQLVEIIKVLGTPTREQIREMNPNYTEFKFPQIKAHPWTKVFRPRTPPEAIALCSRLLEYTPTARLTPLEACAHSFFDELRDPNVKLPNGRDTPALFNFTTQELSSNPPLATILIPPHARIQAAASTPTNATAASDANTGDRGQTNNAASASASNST
The experiment in a line: Z'-LYTE kinase assay, […] ATP, […] min preincubation (IC50 […] without preincubation). The format is biochemical.

In test [2] the target is T1, GSK3β. The description is as above. It is filed as biochemical. The source holds these as a separate data set.

For `C=CC1=C(C(=O)O)N2C(=O)[C@@H](NC(=O)/C(=N\OCC(=O)O)c3csc(N)n3)[C@H]2SC1` [A, cefixime], at GSK3β [1], 550 nM corresponded to half-maximal inhibition (IC50).
In turn, `CO/N=C(\C(=O)N[C@@H]1C(=O)N2C(C(=O)O)=C(CSc3nc(=O)c(=O)[nH]n3C)CS[C@H]12)c1csc(N)n1` [B, ceftriaxone] had an IC50 against GSK3β [2] of 780 nM.
